In assay [1] the test system is advanced-stage pancreatic cancer. Conditions: erlotinib in combination with gemcitabine; Moore et al. 2007; cited from earlier work.
The next assay relates to PANC-1 cells. Conditions: Guo et al. 2009; Durkin et al. 2003; cited from earlier work.
Another assay has as its system Capan-1 cell line. Kind of assay: ATCC's MTT Cell Proliferation Assay, Capan-1. It is filed as cell-based, human. Conditions: Capan-1, 72 hours post-treatment. As to the method: (§1) To test the activities of tris(8-quinolinolato)gallium(III), ATCC's MTT Cell Proliferation Assay® was performed using human pancreatic cancer cell lines PANC-1, BxPC-3, and Capan-1. Stock cultures were allowed to grow to 70-80% confluence for this study. The anti-proliferative activity of tris(8-quinolinolato)gallium(III), against the indicated cell lines was evaluated in vitro using the ATCC's MTT Cell Proliferation Assay (Catalog No. 30-1010K). PANC-1 was grown using DMEM, 10% fetal bovine serum (FBS), 1% of pen/strep/glutamine (PSG) and was seeded with 6E+03 cells/well. […] The plates were left overnight at room temperature in the dark and was read on a plate reader using SoftMax® Pro (version 5.2, Molecular Devices).
(§2) The absorbance data was analyzed as follows: Absorbance values were converted to Percent of Control and plotted against test agent concentrations for IC50 calculations using SoftMax® Pro (version 5.2, Molecular Devices). […] Percent of Control values were calculated by dividing the absorbance values for each test well by the No Drug Control average (column 11 values; cells+vehicle control) and multiplying by 100. Plots of Compound Concentration versus Percent of Control were analyzed using the 4-parameter equation to obtain IC50 values and other parameters that describe the sigmoidal dose response curve. […]

Assay [2] relates to pancreatic tumor cell line MIA PaCa2. The experiment in a line: MTT assay in 3-dimentional tumor model (HuBiogel) derived from MIA PaCa2. It is filed as cell-based. The conditions noted are these: 3-D HuBiogel tumor beads. On the procedure:
(§3) The compound tris(8-quinolinolato)gallium(III) was tested in a 3-dimentional tumor model derived from pancreatic tumor cell line MIA PaCa2. Specifically, cells were trypsinized, washed, counted by trypan blue exclusion. Tumor beads were then prepared by mixing 20,000 cells/100 of HuBiogel (4 mg/mL) (See U.S. patent application Ser. No. 10/546,506, which is incorporated herein by reference). The 3-D tumor beads were cultivated for 72 hours in multi-well plates with complete media (10% FBS) in a 37° C. incubator +5% CO2. Mini-tumors were treated with various concentrations of the test compound tris(8-quinolinolato)gallium(III) in media (final 0.2-0.3% DMSO) or control (DMSO). Repeated drug treatment was done by removing the culture media and replacing with fresh media with drug compound or DMSO. On Day 3, MTT assay and live-cell staining with Calcein AM were performed (5 beads/assay set).
(§4) Statistical analysis of data sets (Average, T-test, GI-50) was performed using MS-Excel program. The average GI-50 (the drug concentration required for growth inhibition at 50%) is […].
(Formazan colour is commonly taken as a measure of viable cells.)

The next assay deals with PANC-1 cell line. The experiment in a line: ATCC's MTT Cell Proliferation Assay, PANC-1. It is filed as cell-based, human. On the procedure:
as §1, §2

The test system of assay [3] is pancreatic tumor cell line MIA PaCa2. Kind of assay: live-cell staining with Calcein AM / image analysis in 3-D tumor beads. It is filed as cell-based. The conditions noted are these: 3-D HuBiogel tumor beads, Day 3. As to the method: as §3, §4
For a further assay, the system named is BxPC-3 cell line. Kind of assay: ATCC's MTT Cell Proliferation Assay, BxPC-3. It is filed as cell-based, human. The conditions noted are these: BxPC-3, 72 hours post-treatment. On the procedure: as §1, §2

As to `C#Cc1cccc(Nc2ncnc3cc(OCCOC)c(OCCOC)cc23)c1` [erlotinib], the “median overall survival benefit” value in assay [1] is on record as “less than four weeks”. The “resistance of PANC-1 cells to the drug” value in the assay with PANC-1 cells is recorded as “resistant”.
In the case of `Nc1ccn([C@@H]2O[C@H](CO)[C@@H](O)C2(F)F)c(=O)n1` [gemcitabine], the “resistance of PANC-1 cells to the drug” value with PANC-1 cells is on record as “resistant”.
With `[Ga+3].[O-]c1cccc2cccnc12.[O-]c1cccc2cccnc12.[O-]c1cccc2cccnc12` [tris(8-quinolinolato)gallium(III)], the IC50 (commonly the point on the concentration scale where inhibition reaches its midpoint) in the assay with Capan-1 cell line was 8.17 µM; with PANC-1 cell line (PANC-1, 72 hours post-treatment, MTT), 1.03 µM; in the assay on BxPC-3 cell line, 0.0032 µM. Also, in assay [2] (MTT assay on Day 3, read-out: average GI-50 (the drug concentration required for growth inhibition at 50%)), the GI50 is 35.7 µM. In addition, the tumor proliferation activity entry in assay [2] (MTT assay, FIG. 1) is listed as “significantly inhibited tumor proliferation activity”. Further, in the assay on PANC-1 cell line (PANC-1), the “activity in pancreatic cancer cells resistant to gemcitabine and/or erlotinib” value is recorded as “active”. For the same molecule, the “tumor killing in live-cell staining/image analysis” value in assay [3] is on record as “dose-dependent tumor killing”.

The values above are taken from patent US20130316998A1, “METHOD FOR TREATING PANCREATIC CANCER” (Niiki Pharma Acquisition Corp. 2, priority 2010, published 2013).
